Reference: patent publication EP3827825A1, “USE OF 3, 4-DIARYLPYRAZOLES AS ANTIBACTERIAL AGENTS” (Wageningen Universiteit, priority 2019, dated 2021)
Values after ≈ are worked out from the molar mass of the structure shown. Where two headings read alike, the source gives them in different places.

Key:
S. aureus Newman = test: Minimal inhibitory concentration (MIC), double-dilution in broth, OD600; type: cell-based, Staphylococcus aureus Newman; details: unit assumed
Experimental: (§1) In short, a stock solution of 5 mg/mL of HKIs in DMSO was made. This stock was diluted to 50 µg/mL in broth in a 96 well plate. Dilutions were made (factor 2) directly in the plate with a multi-channel pipet. Bacteria cultured in suspension overnight were then added to the plate (except negative control) and the plate was incubated for 24 hours. After 24 hours the OD600 was measured using a spectrophotometer. A positive control (with bacteria, without HKI) was also measured on each plate.
Bacterial strains used in this study for antibacterial susceptibility testing (Table S2) were propagated using standard microbiological procedures. Minimal inhibitory concentrations (MICs) were determined following a standard double-dilution method (42), 73. […] For M. marinum, MICs were determined in Middlebrook 7H9 broth (Difco) and MICs were determined after 3 days incubation at 30 °C.
(§2) Grow the bacterial colonies to be tested from single colonies on an agar plate in LB broth or suitable bacterial growth medium overnight at 37°C. Prepare a 5 mg/mL stock solution of compounds to be tested in DMSO. One 96-well plate per bacterial strain was prepared. First, put 50 uL of medium to each well. Add 48 µL of medium to all wells in row A. Pipet 2 µL of antimicrobial master stock into the top well (row A). Beware, the antimicrobial concentration will be diluted 2x after adding the bacterial culture. Total volume in each well will be 100 µL. In A11, pipet 2 µL of DMSO. Make a serial dilution from row A to row H, pipetting 50 µL from the previous row into the new one. Mix well by pipetting up and down. Discard the last 50 µL so that there is 50 µl in each well In a clean, new plastic pipetting cup, dilute the overnight bacterial culture 100 times. Add 100 µL of bacterial overnight culture to 9900 µL of medium. Mix the suspension well. Once the serial dilutions are complete for all antimicrobial compounds, add 50 µL of diluted overnight bacterial culture to each well (except column 12). Mix by pipetting or put the plate on the shaker. Per 2 plates, close with parafilm around the edges and place in the incubator overnight. After overnight culturing, measure bacterial growth on the SpectraMax. The lowest concentration where no growth is observed is the MIC. To determine the MIB pipette 5 µL from each well of the 96 well plate where now growth was observed on to an LB agar plate, without antimicrobial. Put the plates in the incubator to grow overnight. The minimal concentration where no growth can be seen on the agar plate is the MBC.

S. suis = test: as above; type: cell-based, Streptococcus suis; details: unit assumed
Experimental: as §1, with “each plate. The MICs were not determined in duplo/triplicate in the same experiment, however, the MICs of several HKIs were measured in different experiments and no major differences (max. 1x dilution) were found in the MICs between the experiments.” for “each plate.”
(§3) Bacterial strains used in this study for antibacterial susceptibility testing (Table S2) were propagated using standard microbiological procedures. Minimal inhibitory concentrations (MICs) were determined following a standard double-dilution method (42), 73. MICs were recorded as the lowest concentration of the compound where no visible growth was observed. After plating the dilutions around the MIC or growing them in fresh MH media, minimal bactericidal concentration (MBC) was recorded as the lowest concentration of the compound at which no colonies were formed or no growth was observed, respectively. For M. marinum, MICs were determined in Middlebrook 7H9 broth (Difco) and MICs were determined after 3 days incubation at 30 °C.
as §2

P. multocida = test: as above; type: cell-based, Pasteurella multocida; details: unit assumed
Experimental: as §1, with “each plate. The MICs were not determined in duplo/triplicate in the same experiment, however, the MICs of several HKIs were measured in different experiments and no major differences (max. 1x dilution) were found in the MICs between the experiments.” for “each plate.”
as §3, §2

M. marinum = test: Minimal inhibitory concentration (MIC), Middlebrook 7H9 broth, 3 days at 30 °C; type: cell-based, Mycobacterium marinum; details: unit assumed
Experimental: as §1, with “each plate. The MICs were not determined in duplo/triplicate in the same experiment, however, the MICs of several HKIs were measured in different experiments and no major differences (max. 1x dilution) were found in the MICs between the experiments.” for “each plate.”
as §3, §2

E. faecium Van A = test: Minimal inhibitory concentration (MIC), double-dilution in broth, OD600; type: cell-based, Enterococcus faecium; details: unit assumed
Experimental: as §1, with “each plate. The MICs were not determined in duplo/triplicate in the same experiment, however, the MICs of several HKIs were measured in different experiments and no major differences (max. 1x dilution) were found in the MICs between the experiments.” for “each plate.”
as §3, §2

HEK293 = test: Cell toxicity, Alamar blue assay, 24 hours exposure; type: cell-based; details: Homo sapiens
Experimental: (§4) Toxicity was primarily determined by measuring cytotoxicity with the Alamar blue assay. In short, cells (HEK293, NRK-52E and Caco-2) were plated in 96-well plates and cultured overnight. HKI compounds were diluted to concentrations ranging from 0.39 to 500 µg/mL in serum-free medium and added to the cells.
(§5) After exposure, cells were incubated for 24 hours. Experiments were mostly performed by single measurement. […] After 24 hours HKIs were removed from the cells and Alamar blue was added, incubated for 45 minutes and fluorescence was measured on a spectrophotometer. Alamar blue measures the conversion of blue, low fluorescent resazurin into high fluorescent pink resorufin. This conversion can only be made in viable mitochondria in viable cells and therefore this dye provides a measure for cytotoxicity.

NRK-52E = test: as above; type: cell-based; details: for IC50: Rattus norvegicus, read-out: IC50 NRK-52E (50 mg/mL stock)
Experimental: as §4, §5

E. coli JW5503 = type: cell-based, Escherichia coli; details: unit assumed
Experimental: as §1, with “each plate. The MICs were not determined in duplo/triplicate in the same experiment, however, the MICs of several HKIs were measured in different experiments and no major differences (max. 1x dilution) were found in the MICs between the experiments.” for “each plate.”
as §3, §2

[1] = HEK293, read-out: IC50 HEK293 (5 mg/mL stock)
[2] = HEK293, read-out: IC50 HEK293 (50 mg/mL stock)

Compound	MIC S. aureus Newman (S. aureus Newman)	MIC S. suis (S. suis)	MIC P. multocida (P. multocida)	MIC M. marinum (M. marinum)	MIC E. faecium Van A (E. faecium Van A)	IC50 (HEK293; [1])	IC50 (HEK293; [2])	IC50 (NRK-52E)	MIC E. coli JW5503 (E. coli JW5503)	IC50 NRK-52E (50 mg/mL stock) (NRK-52E; 50 mg/mL stock)
Oc1ccc(-c2onc(C(F)(F)F)c2-c2ccc(Cl)cc2)c(O)c1 [AND-2, 4-[4-(4-chlorophenyl)-3-(trifluoromethyl)isoxazol-5-yl]resorcinol]	3.13 µg/mL (≈ 8.8 µM)	12.5 µg/mL (≈ 35.1 µM)	25 µg/mL (≈ 70.3 µM)	> 50 µg/mL	6.25 µg/mL (≈ 17.6 µM)	6.97 µg/mL (≈ 19.6 µM)	36.7 µg/mL (≈ 103 µM)	~3.88 µg/mL (≈ 10.9 µM)		
CCOc1ccc(-c2[nH]nc(C(F)(F)F)c2-c2ccc(OC)c(OC)c2)c(O)c1 [May-3, 2-[4-(3,4-dimethoxyphenyl)-5-(trifluoromethyl)-1∼{H}-pyrazol-3-yl]-5-ethoxy-phenol]	12.5 µg/mL (≈ 30.6 µM)	12.5 µg/mL (≈ 30.6 µM)	> 50 µg/mL	25 µg/mL (≈ 61.2 µM)		6.69 µg/mL (≈ 16.4 µM)		~0.8 µg/mL (≈ 1.96 µM)		
CCOc1ccc(-c2n[nH]c(C(F)(F)F)c2-c2ccc(OC)cc2)c(O)c1 [May-7, 5-ethoxy-2-[4-(4-methoxyphenyl)-5-(trifluoromethyl)-1∼{H}-pyrazol-3-yl]phenol]	6.25 µg/mL (≈ 16.5 µM)	6.25 µg/mL (≈ 16.5 µM)	> 50 µg/mL	50 µg/mL (≈ 132 µM)		5.68 µg/mL (≈ 15 µM)	231 µg/mL (≈ 610 µM)	~31.1 µg/mL (≈ 82.3 µM)		
COc1ccc(-c2n[nH]c(C(F)(F)F)c2-c2ccccc2OC)c(O)c1 [May-19, 5-methoxy-2-[4-(2-methoxyphenyl)-5-(trifluoromethyl)-1∼{H}-pyrazol-3-yl]phenol]	25 µg/mL (≈ 68.6 µM)	25 µg/mL (≈ 68.6 µM)	50 µg/mL (≈ 137 µM)	50 µg/mL (≈ 137 µM)	> 50 µg/mL	5.74 µg/mL (≈ 15.8 µM)		24.1 µg/mL (≈ 66.1 µM)		
CCOc1ccc(-c2n[nH]c(C(F)(F)F)c2-c2ccccc2)c(O)c1 [May-22, 5-ethoxy-2-[4-phenyl-5-(trifluoromethyl)-1∼{H}-pyrazol-3-yl]phenol]	3.13 µg/mL (≈ 8.99 µM)	6.25 µg/mL (≈ 17.9 µM)	50 µg/mL (≈ 144 µM)	> 50 µg/mL	> 50 µg/mL	5.8 µg/mL (≈ 16.7 µM)	19.9 µg/mL (≈ 57.1 µM)	19.2 µg/mL (≈ 55 µM)		
O=[N+]([O-])c1ccc(COc2ccc(-c3[nH]nc(C(F)(F)F)c3-c3ccc(Cl)cc3)c(O)c2)cc1 [Sep-12, 2-[4-(4-chlorophenyl)-5-(trifluoromethyl)-1∼{H}-pyrazol-3-yl]-5-(4-nitrobenzyl)oxyphenol]	3.13 µg/mL (≈ 6.39 µM)	12.5 µg/mL (≈ 25.5 µM)	> 50 µg/mL	50 µg/mL (≈ 102 µM)	12.5 µg/mL (≈ 25.5 µM)			14.7 µg/mL (≈ 30.1 µM)	> 50 µg/mL	
COc1ccc(-c2c(C(F)(F)F)n[nH]c2-c2ccc(OCc3ccc(F)cc3)cc2O)cc1 [Sep-14, 5-(4-fluorobenzyl)oxy-2-[4-(4-methoxyphenyl)-5-(trifluoromethyl)-1∼{H}-pyrazol-3-yl]phenol]	12.5 µg/mL (≈ 27.3 µM)	25 µg/mL (≈ 54.5 µM)	> 50 µg/mL	> 50 µg/mL	12.5 µg/mL (≈ 27.3 µM)			~16.6 µg/mL (≈ 36.3 µM)	25 µg/mL (≈ 54.5 µM)	
C=C(C)COc1ccc(-c2[nH]nc(C(F)(F)F)c2-c2ccccc2OC)c(O)c1 [Sep-15, 2-[4-(2-methoxyphenyl)-5-(trifluoromethyl)-1∼{H}-pyrazol-3-yl]-5-(2-methylallyloxy)phenol]	3.13 µg/mL (≈ 7.74 µM)	12.5 µg/mL (≈ 30.9 µM)	> 50 µg/mL	50 µg/mL (≈ 124 µM)	6.25 µg/mL (≈ 15.5 µM)			~7.62 µg/mL (≈ 18.8 µM)	6.25 µg/mL (≈ 15.5 µM)	
COc1ccccc1-c1c(C(F)(F)F)n[nH]c1-c1ccc(OCc2ccc(C)cc2)cc1O [Sep-16, 2-[4-(2-methoxyphenyl)-5-(trifluoromethyl)-1∼{H}-pyrazol-3-yl]-5-(4-methylbenzyl)oxy-phenol]	6.25 µg/mL (≈ 13.8 µM)	25 µg/mL (≈ 55 µM)	> 50 µg/mL	> 50 µg/mL	12.5 µg/mL (≈ 27.5 µM)			~8.72 µg/mL (≈ 19.2 µM)	50 µg/mL (≈ 110 µM)	
COc1ccccc1-c1c(C(F)(F)F)n[nH]c1-c1ccc(OCc2ccccc2)cc1O [Sep-17, 5-benzoxy-2-[4-(2-methoxyphenyl)-5-(trifluoromethyl)-1∼{H}-pyrazol-3-yl]phenol]	6.25 µg/mL (≈ 14.2 µM)	25 µg/mL (≈ 56.8 µM)	> 50 µg/mL	> 50 µg/mL	12.5 µg/mL (≈ 28.4 µM)			~8.97 µg/mL (≈ 20.4 µM)	12.5 µg/mL (≈ 28.4 µM)	
O=[N+]([O-])c1ccc(COc2ccc(-c3[nH]nc(C(F)(F)F)c3-c3ccccc3)c(O)c2)cc1 [Sep-18, 5-(4-nitrobenzyl)oxy-2-[4-phenyl-5-(trifluoromethyl)-1∼{H}-pyrazol-3-yl]phenol]	6.25 µg/mL (≈ 13.7 µM)	12.5 µg/mL (≈ 27.4 µM)	> 50 µg/mL	> 50 µg/mL	12.5 µg/mL (≈ 27.4 µM)			~14.7 µg/mL (≈ 32.3 µM)	12.5 µg/mL (≈ 27.4 µM)	
Oc1ccc(-c2n[nH]c(C(F)(F)F)c2-c2ccc(Br)cc2)c(O)c1 [Sep-20, 4-[4-(4-bromophenyl)-5-(trifluoromethyl)-1∼{H}-pyrazol-3-yl]resorcinol]	6.25 µg/mL (≈ 15.7 µM)	25 µg/mL (≈ 62.6 µM)	> 50 µg/mL	> 50 µg/mL	25 µg/mL (≈ 62.6 µM)				6.25 µg/mL (≈ 15.7 µM)	7.58
COc1ccc(-c2c(-c3ccc(OCc4ccc(C)cc4)cc3O)n[nH]c2C(F)(F)F)cc1OC [Sep-27, 2-[4-(3,4-dimethoxyphenyl)-5-(trifluoromethyl)-1∼{H}-pyrazol-3-yl]-5-(4-methylbenzyl)oxy-phenol]	3.13 µg/mL (≈ 6.46 µM)	50 µg/mL (≈ 103 µM)	> 50 µg/mL	50 µg/mL (≈ 103 µM)	> 50 µg/mL			~17.6 µg/mL (≈ 36.3 µM)	> 50 µg/mL	
COc1ccc(-c2c(-c3ccc(OCc4ccccc4)cc3O)n[nH]c2C(F)(F)F)cc1OC [Sep-28, 5-benzoxy-2-[4-(3,4-dimethoxyphenyl)-5-(trifluoromethyl)-1∼{H}-pyrazol-3-yl]phenol]	12.5 µg/mL (≈ 26.6 µM)	> 50 µg/mL	> 50 µg/mL	> 50 µg/mL	> 50 µg/mL			~17.3 µg/mL (≈ 36.7 µM)	25 µg/mL (≈ 53.1 µM)	
COc1ccccc1-c1c(-c2ccc(OCC=C(C)C)cc2O)n[nH]c1C(F)(F)F [Sep-30, 2-[4-(2-methoxyphenyl)-5-(trifluoromethyl)-1∼{H}-pyrazol-3-yl]-5-(3-methylbut-2-enoxy)phenol]	6.25 µg/mL (≈ 14.9 µM)	25 µg/mL (≈ 59.7 µM)	> 50 µg/mL	> 50 µg/mL	12.5 µg/mL (≈ 29.9 µM)			~17.2 µg/mL (≈ 41.2 µM)	6.25 µg/mL (≈ 14.9 µM)	
